Results reported in PMC9586930, “Molecular insights into the distinct signaling duration for the peptide-induced PTH1R activation” (Nature Communications, 2022).
Changes are numbered by the printed parent chain.

Key:
Assay type in all cases: cell-based
Details in all cases: for ΔpEC50±SEM: relative to WT, n = 3 in triplicate; for ΔpEC50±SEM / Span±SEM: mean ± SEM; for Span±SEM: window between maximal response (Emax) and vehicle, n = 3
WT PTH1R = biological target: T1, WT PTH1R (Homo sapiens, UniProt Q03431); assay: cAMP accumulation assay (GloSensor), wild-type PTH1R
T1 construct: a flag-tag was fused to the N terminal of full-length PTH1R (WT or mutant); expressed in transfected cells; host or cells: HEK293T
T1 sequence (Q03431 27-593): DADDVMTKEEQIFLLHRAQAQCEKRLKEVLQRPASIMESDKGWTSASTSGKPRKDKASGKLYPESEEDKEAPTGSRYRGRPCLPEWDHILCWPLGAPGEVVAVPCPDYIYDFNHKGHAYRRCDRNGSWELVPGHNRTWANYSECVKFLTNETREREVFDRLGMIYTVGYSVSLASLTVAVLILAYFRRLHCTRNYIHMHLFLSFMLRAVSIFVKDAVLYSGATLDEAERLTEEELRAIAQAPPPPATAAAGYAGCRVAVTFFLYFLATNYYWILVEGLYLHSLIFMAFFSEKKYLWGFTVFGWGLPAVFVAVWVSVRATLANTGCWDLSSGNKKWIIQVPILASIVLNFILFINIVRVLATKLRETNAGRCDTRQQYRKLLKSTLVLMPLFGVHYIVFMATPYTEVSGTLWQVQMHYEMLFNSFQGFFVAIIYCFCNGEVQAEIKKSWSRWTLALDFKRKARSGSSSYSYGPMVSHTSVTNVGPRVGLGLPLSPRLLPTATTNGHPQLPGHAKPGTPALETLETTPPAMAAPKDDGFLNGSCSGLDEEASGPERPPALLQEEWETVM
Experimental: (§1) Human embryonic kidney 293 T (HEK293T, ATCC: CRL-1573) cells were transfected with a plasmid mixture consisting of pcDNA3.1-flag-PTH1R (WT or mutants) and the cAMP biosensor GloSensor-22F (Promega) at a ratio of 2:1 (see Supplementary Table 7 for a list of primers used in this study). After 24 h, transfected cells were plated onto a 384-well plate, which was treated with cell adherent reagent (Applygen) in advance. After another 12 h, cells were treated with Hank’s balanced salt solution for starvation and then incubated in CO2-independent media containing 4% GloSensor cAMP Reagent (Promega) at a volume of 5 μl per well and incubated for 20 min at RT before measurements for baseline luminescence (Spark Multimode microplate reader, TECAN). Next, test ligands were added at different concentrations from 10^−6 to 10^−13 M before second measurement. Finally, data were normalized to 100% of the maximal PTH (1-34) response for WT PTH1R using a sigmoidal dose-response in GraphPad Prism.
(§2) Statistical analyses were performed on at least three individual datasets and analysed using GraphPad Prism software. Bars represent differences in the calculated agonist potency (pEC50) and maximum agonist response (Emax) for each mutant relative to the WT receptor. Data are mean± s.e.m. from at least three independent experiments, performed in triplicates. ns, not significant, ^nsP > 0.01; ^*P < 0.01; ^**P < 0.001; ^***P < 0.0001 (one-way analysis of variance (ANOVA) followed by Dunnett’s test, compared with the response of the WT). For dose-response experiments, data were normalized and analyzed using nonlinear curve fitting for the log (agonist) versus response (three parameters) curves.

PTH1R Y191A mutant = biological target: T2, PTH1R Y191A mutant (Homo sapiens, UniProt Q03431, Y191A); assay: cAMP accumulation assay (GloSensor), PTH1R Y191A
T2 construct: a flag-tag was fused to the N terminal of full-length PTH1R (WT or mutant); expressed in transfected cells; host or cells: HEK293T
T2 sequence (Q03431 27-593 Y191A): T1 sequence (Q03431 27-593) with Y165A
Experimental: as §1, §2

PTH1R T430A mutant = biological target: T3, PTH1R T430A mutant (Homo sapiens, UniProt Q03431, T430A); assay: cAMP accumulation assay (GloSensor), PTH1R T430A
T3 construct: a flag-tag was fused to the N terminal of full-length PTH1R (WT or mutant); expressed in transfected cells; host or cells: HEK293T
T3 sequence (Q03431 27-593 T430A): T1 sequence (Q03431 27-593) with T404A
Experimental: as §1, §2

| span (from the WT) (WT PTH1R; PTH1R WT, replicate 1) | ΔpEC50 (from the WT) (WT PTH1R; PTH1R WT, replicate 1) | span (from the WT) (WT PTH1R; PTH1R WT, replicate 2) | ΔpEC50 (from the WT) (WT PTH1R; PTH1R WT, replicate 2) | span (from the WT) (WT PTH1R; PTH1R WT, replicate 3) | ΔpEC50 (from the WT) (WT PTH1R; PTH1R WT, replicate 3) | ΔpEC50±SEM (WT PTH1R) | ΔpEC50 (from the WT) (WT PTH1R; replicate 1) | ΔpEC50 (from the WT) (WT PTH1R; replicate 2) | ΔpEC50 (from the WT) (WT PTH1R; replicate 3) | Span±SEM (WT PTH1R) | span (from the WT) (PTH1R Y191A mutant; PTH1R Y1911.43A, replicate 1) | ΔpEC50 (from the WT) (PTH1R Y191A mutant; PTH1R Y1911.43A, replicate 1) | span (from the WT) (PTH1R Y191A mutant; PTH1R Y1911.43A, replicate 2) | ΔpEC50 (from the WT) (PTH1R Y191A mutant; PTH1R Y1911.43A, replicate 2) | span (from the WT) (PTH1R Y191A mutant; PTH1R Y1911.43A, replicate 3) | ΔpEC50 (from the WT) (PTH1R Y191A mutant; PTH1R Y1911.43A, replicate 3) | ΔpEC50±SEM (PTH1R Y191A mutant) | ΔpEC50 (from the WT) (PTH1R Y191A mutant; replicate 1) | ΔpEC50 (from the WT) (PTH1R Y191A mutant; replicate 2) | Substance | other results |
| --- | --- | --- | --- | --- | --- | --- | --- | --- | --- | --- | --- | --- | --- | --- | --- | --- | --- | --- | --- | --- | --- |
| 106.8 | 0 | 118.8 | 0 | 116.4 | 0 | 0 | 0 | 0 | 0 | 114.00±3.67 | 133.3 | -0.163 | 153.3 | -0.013 | 159.2 | -0.095 | -0.09±0.04 | -0.163 | -0.013 | H-AVAEIQLMHQRAKWIQDARRRAFLHKLIAEIHTAEI-OH [LA-PTH, long-acting PTH analog, modified PTH/PTHrP hybrid] | ΔpEC50 (from the WT) (PTH1R Y191A mutant; replicate 3): -0.095; Span±SEM (PTH1R Y191A mutant): 148.60±7.84; span (from the WT) (PTH1R T430A mutant; PTH1R T430ECL3A, replicate 1): 172.2; ΔpEC50 (from the WT) (PTH1R T430A mutant; PTH1R T430ECL3A, replicate 1): -1.056; span (from the WT) (PTH1R T430A mutant; PTH1R T430ECL3A, replicate 2): 195.6; ΔpEC50 (from the WT) (PTH1R T430A mutant; PTH1R T430ECL3A, replicate 2): -1.067; span (from the WT) (PTH1R T430A mutant; PTH1R T430ECL3A, replicate 3): 155.2; ΔpEC50 (from the WT) (PTH1R T430A mutant; PTH1R T430ECL3A, replicate 3): -1.166; ΔpEC50±SEM (PTH1R T430A mutant): -1.10±0.03; ΔpEC50 (from the WT) (PTH1R T430A mutant; replicate 1): -1.056; ΔpEC50 (from the WT) (PTH1R T430A mutant; replicate 2): -1.067; ΔpEC50 (from the WT) (PTH1R T430A mutant; replicate 3): -1.166; Span±SEM (PTH1R T430A mutant): 174.33±11.17 |
| 125.1 | 0 | 136.6 | 0 | 114.9 | 0 | 0 | 0 | 0 | 0 | 125.53±6.27 | 132.4 | -0.995 | 179.6 | -0.805 | 268.7 | -0.706 | -0.84±0.08 | -0.995 | -0.805 | H-SVSEIQLMHNLGKHLNSMERVEWLRKKLQDVHNF-OH [PTH, Teriparatide, human PTH 1-34, long-acting peptide agonist of PTH1R] | Emax (WT PTH1R; HEK293T cells, from curve fitting dose-response data): 103.1 luminescence counts per 500ms; ΔpEC50 (from the WT) (PTH1R Y191A mutant; replicate 3): -0.706; Span±SEM (PTH1R Y191A mutant): 164.77±14.05; span (from the WT) (PTH1R T430A mutant; PTH1R T430ECL3A, replicate 1): 194; ΔpEC50 (from the WT) (PTH1R T430A mutant; PTH1R T430ECL3A, replicate 1): 0.303; span (from the WT) (PTH1R T430A mutant; PTH1R T430ECL3A, replicate 2): 170.6; ΔpEC50 (from the WT) (PTH1R T430A mutant; PTH1R T430ECL3A, replicate 2): 0.384; span (from the WT) (PTH1R T430A mutant; PTH1R T430ECL3A, replicate 3): 159.7; ΔpEC50 (from the WT) (PTH1R T430A mutant; PTH1R T430ECL3A, replicate 3): 0.286; ΔpEC50±SEM (PTH1R T430A mutant): -0.32±0.03; ΔpEC50 (from the WT) (PTH1R T430A mutant; replicate 1): 0.303; ΔpEC50 (from the WT) (PTH1R T430A mutant; replicate 2): 0.384; ΔpEC50 (from the WT) (PTH1R T430A mutant; replicate 3): 0.286; Span±SEM (PTH1R T430A mutant): 174.77±10.12 |

| Substance | span (from the WT) (WT PTH1R; PTH1R WT, replicate 1) | ΔpEC50 (from the WT) (WT PTH1R; PTH1R WT, replicate 1) | span (from the WT) (WT PTH1R; PTH1R WT, replicate 2) | ΔpEC50 (from the WT) (WT PTH1R; PTH1R WT, replicate 2) | span (from the WT) (WT PTH1R; PTH1R WT, replicate 3) | ΔpEC50 (from the WT) (WT PTH1R; PTH1R WT, replicate 3) | ΔpEC50±SEM (WT PTH1R) | ΔpEC50 (from the WT) (WT PTH1R; replicate 1) | ΔpEC50 (from the WT) (WT PTH1R; replicate 2) | ΔpEC50 (from the WT) (WT PTH1R; replicate 3) | Span±SEM (WT PTH1R) | span (from the WT) (PTH1R Y191A mutant; PTH1R Y1911.43A, replicate 1) | ΔpEC50 (from the WT) (PTH1R Y191A mutant; PTH1R Y1911.43A, replicate 1) | span (from the WT) (PTH1R Y191A mutant; PTH1R Y1911.43A, replicate 2) | ΔpEC50 (from the WT) (PTH1R Y191A mutant; PTH1R Y1911.43A, replicate 2) | span (from the WT) (PTH1R Y191A mutant; PTH1R Y1911.43A, replicate 3) | ΔpEC50 (from the WT) (PTH1R Y191A mutant; PTH1R Y1911.43A, replicate 3) | ΔpEC50±SEM (PTH1R Y191A mutant) | ΔpEC50 (from the WT) (PTH1R Y191A mutant; replicate 1) | ΔpEC50 (from the WT) (PTH1R Y191A mutant; replicate 2) | other results |
| --- | --- | --- | --- | --- | --- | --- | --- | --- | --- | --- | --- | --- | --- | --- | --- | --- | --- | --- | --- | --- | --- |
| H-AVSEHQLLHDKGKSIQDLRRRELLEKLL-{Aib}-KLHTA-NH2 [ABL, Abaloparatide, an analog of PTHrP, short-acting PTH1R agonist] | 115.9 | 0 | 122.2 | 0 | 127.3 | 0 | 0 | 0 | 0 | 0 | 121.80±3.30 | 197.4 | -2.59 | 251.3 | -2.509 | 242 | -2.365 | -2.49±0.07 | -2.59 | -2.509 | ΔpEC50 (from the WT) (PTH1R Y191A mutant; replicate 3): -2.365; Span±SEM (PTH1R Y191A mutant): 230.23±16.63; span (from the WT) (PTH1R T430A mutant; PTH1R T430ECL3A, replicate 1): 230.5; ΔpEC50 (from the WT) (PTH1R T430A mutant; PTH1R T430ECL3A, replicate 1): -0.76; span (from the WT) (PTH1R T430A mutant; PTH1R T430ECL3A, replicate 2): 190.2; ΔpEC50 (from the WT) (PTH1R T430A mutant; PTH1R T430ECL3A, replicate 2): -0.775; span (from the WT) (PTH1R T430A mutant; PTH1R T430ECL3A, replicate 3): 191.7; ΔpEC50 (from the WT) (PTH1R T430A mutant; PTH1R T430ECL3A, replicate 3): -0.865; ΔpEC50±SEM (PTH1R T430A mutant): -0.8±0.03; ΔpEC50 (from the WT) (PTH1R T430A mutant; replicate 1): -0.76; ΔpEC50 (from the WT) (PTH1R T430A mutant; replicate 2): -0.775; ΔpEC50 (from the WT) (PTH1R T430A mutant; replicate 3): -0.865; Span±SEM (PTH1R T430A mutant): 204.13±13.19 |
